Legend:
[1] = system: MDA-MB-436 olaparib-resistant model; assay: MDA-MB-436 olaparib-resistant CDX model in vivo; settings: azenosertib 80 mg/kg
Description: (§1) MDA-MB-436 PARP inhibitor-resistant lines were generated by long-term in vitro treatment with a PARP inhibitor that is olaparib (Ola^R) or niraparib (Nir^R). Resistant cells were confirmed by sequencing to have BRCA1 reversion mutation. The parental MDA-MB-436 cell line remains sensitive to PARP inhibitors as expected (FIG. 5A), while the Nir^R (FIG. 5B) and Ola^R (FIG. 5C) MDA-MB-436 cell lines are no longer sensitive to PARP inhibitors but are sensitive to azenosertib. Azenosertib activity was further confirmed in the PARP inhibitor-resistant MDA-MB-436 CDX model in vivo. […] WEE1 inhibitor or PARP inhibitor treatment in the Parental TNBC animal model (without PARP inhibitor resistance) is shown in FIG. 5D.

[2] = system: 22RV1 (prostate cancer cell line) subcutaneous xenografts; assay: 22RV1 subcutaneous xenograft tumor growth inhibition; format: in vivo, CB17 SCID mice
Protocol: The prostate cancer cell line 22RV1 harbors a BRCA2 pathogenic mutation (HRD+). Briefly, 72 tumor-bearing mice were randomized and assigned into nine groups using a randomized block design based on their tumor volumes with eight mice per group. Each mouse was inoculated subcutaneously at the right flank with 22RV1 tumor cells in 0.2 mL mixture of Matrigel (5×10^6 cells/mouse). Treatments were started when the tumor size reached 199.94 mm^3 for tumor efficacy studies (Day 14 post inoculation). [table] Tumor size was measured twice weekly in two dimensions using caliper and expressed in mm3 using the formula: where a and b were long and short diameters of the tumor. The tumor size was used for calculations of T/C %. The T/C(%) was calculated according to the following formula: Two-way ANOVA followed by Bonferroni post-test was performed to compare tumor volumes among vehicle and other groups.

[3] = system: MDA-MB-436 niraparib-resistant model; assay: MDA-MB-436 niraparib-resistant CDX model in vivo; settings: azenosertib 80 mg/kg
Description: as §1

[4] = system: HCC1937 PARP inhibitor-resistant TNBC xenograft; assay: HCC1937 TNBC xenograft tumor growth inhibition; format: in vivo, mice
Protocol: Anti-tumor activity of azenosertib monotherapy or in combination with olaparib was evaluated in the HCC1937 model in vivo in mice (FIG. 9), and Table 11 summarizes the groups and treatments. […] Treatment with monotherapy olaparib at 100 mg/kg QD confirmed HCC1937 resistance to the PARP inhibitor.

[5] = azenosertib 60 mg/kg p.o. qd × 5 3 cycle
[6] = azenosertib 80 mg/kg p.o. qd × 5 3 cycle

C=CCn1c(=O)c2cnc(Nc3ccc(N4CCN(C)CC4)cc3)nc2n1-c1ccc2c(n1)[C@@](O)(CC)CC2 [Azenosertib, azenosertib]
tumor volume compared to the PARP inhibitor [1]: significant reduction in tumor volume | % TGI Day 5 [2, 5]: 54.08% | % TGI Day 8 [2, 5]: 32.68% | % TGI Day 12 [2, 5]: 44.02% | % TGI Day 15 [2, 5]: 26.61% | % TGI Day 19 [2, 5]: 14.55% | % TGI Day 5 [2, 6]: 38.26% | % TGI Day 8 [2, 6]: 23.80% | % TGI Day 12 [2, 6]: 26.16% | % TGI Day 15 [2, 6]: 19.47% | % TGI Day 19 [2, 6]: 38.13% | tumor volume compared to the PARP inhibitor [3]: significant reduction in tumor volume | tumor growth inhibition ([4]; monotherapy azenosertib 60 mg/kg QD 5:2): 80% | tumor growth inhibition ([4]; monotherapy azenosertib 80 mg/kg QD 5:2): 89%
